Results on 18 compounds are retold here after US8426420B2, “Heterocyclic pyrazole-carboxamidesas P2Y12 antagonists” (Sanofi, priority 2007, dated 2013).

Assay [1] relates to human platelet rich plasma. In words: Inhibition of human platelet aggregation, 96-well assay. The format is cell-based. Conditions: Homo sapiens, Platelet, 20 min. The gist of the method:
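ADP-induced aggregation read as 650 nm absorbance every minute for 20 min at 37 °C, with shaking between reads. PRP (~3×E8 platelets/ml, diluted with PPP, ACD-A blood from healthy volunteers) was exposed to compound for 5 min before adding a 40 μM ADP stock (15 μl into 150 μl).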

Another assay deals with human P2Y12 receptor (Homo sapiens, UniProt Q9H244). The experiment in a line: Human P2Y12 recombinant cell membrane binding assay with 33P 2MeS-ADP. Conditions: competition against 33P 2MeS-ADP, membranes of CHO cells with recombinant human P2Y12 receptor. Here is the method:
The ability of the compounds of the formula Ito inhibit the P2Y12 receptor can be assessed by determining the concentration of the compound of the formula I that binds to the human P2Y12 Recombinant Cell Membrane Binding Assay with 33P 2MeS-ADP.
Human P2Y12 Recombinant Cell Membrane Binding Assay
The ability of a test compound to bind to the P2Y12 receptor was evaluated in a recombinant cell membrane binding assay. In this competitive binding assay, the test compound competed against a radiolabeled agonist for binding to the P2Y12 receptor, expressed on the cell membrane. Inhibition of binding of the labeled material was measured and correlated to the amount and potency of the test compound. This binding assay is a modification of the procedure described by Takasaki, J. et. al, Mol. Pharmacol., 2001, Vol. 60, pg. 432. A membrane preparation was prepared from Chinese Hamster Ovary (CHO) cells with recombinant expression of the human P2Y12 receptor according to standard procedures as a source of P2Y12.
To a 96-well microtiterplate the following were added: a) 24 μl of assay buffer (10 mM HEPES, 138 mM NaCl, […] KCl, 12 mM NaHCO3, 1 mM EDTA-Na, 0.1% BSA, pH 7.4) b) 1 μL compound in DMSO c) 50 μL P2Y12 CHO membrane (20 μg/ml) and after 15 min at RT d) 25 μL of 1.61 nM 33P 2MeS-ADP (Perkin Elmer NEN custom synthesis, specific activity ˜2100 Ci/mmol) made in assay buffer.
After 20 min incubation at RT samples were transferred to 96-well microtiter filterplates (Millipore HTS GF/B), pre-wetted for 20 min with 300 μL of stop buffer (10 mM HEPES, 138 mM NaCl pH 7.4) and then filtered through completely with a Millipore plate vacuum. Next, wells were washed four times with 400 μl/well of stop buffer on a plate vacuum. The plate was disassembled and allowed to air dry overnight with the filter side up over night. The filter plates were snapped into adapter plates and 0.1 mL of Microscint 20 Scintillation Fluid (Perkin Elmer #6013621) was added to each well. The top of the filterplate was sealed with plastic plate covers. The sealed filterplate were incubated 2 hours at RT. A Microbeta Scintillation Counter was used to measure counts.
Compounds were diluted as 10 mM DMSO stocks and tested in a four-point, five-fold dilution series run in triplicate beginning at 10 μM, final concentration. Data were analyzed using a four-parameter curve fit with a fixed minimum and maximum experimentally defined as the average positive and negative controls on each plate.

Chain of human P2Y12 receptor (Q9H244 whole entry): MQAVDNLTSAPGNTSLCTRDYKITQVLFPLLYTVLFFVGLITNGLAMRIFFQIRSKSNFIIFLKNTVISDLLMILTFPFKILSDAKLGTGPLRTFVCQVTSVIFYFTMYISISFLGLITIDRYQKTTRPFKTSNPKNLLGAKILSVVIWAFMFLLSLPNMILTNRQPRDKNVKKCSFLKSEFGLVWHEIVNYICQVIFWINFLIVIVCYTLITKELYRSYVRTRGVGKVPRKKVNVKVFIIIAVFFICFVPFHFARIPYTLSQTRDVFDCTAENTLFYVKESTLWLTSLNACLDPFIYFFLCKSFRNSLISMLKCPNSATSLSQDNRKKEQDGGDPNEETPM

In general, IC50 refers to the concentration needed to halve the response being measured. In the case of `CCOC(=O)N1CCN(C(=O)[C@H](CCC(=O)O)NC(=O)c2cc(OCC(=O)N3CCC[C@H]3C(=O)NC3CCC3)n(-c3ccccc3)n2)CC1` [Example 5], the IC50 in assay [1] is 30 nM; at human P2Y12 receptor it was 19 nM.
Take `CCOC(=O)N1CCN(C(=O)[C@H](CCC(=O)O)NC(=O)c2cc(OCC(=O)N3CCC[C@H]3C(=O)NCCF)n(-c3ccccc3)n2)[C@H](C)C1` [Example 151, (R)-4-[(S)-4-Carboxy-2-({5-[2-((S)-2-(2-fluoroethyl-carbamoyl)-pyrrolidin-1-yl)-2-oxo-ethoxy]-1-phenyl-1H-pyrazole-3-carbonyl}-amino)-butyryl]-3-methyl-piperazine-1-carboxylic acid ethyl ester]: the 50% inhibitory concentration (IC50) at human P2Y12 receptor worked out at 166 nM.
On the same count and under the same terms, the result for `CCOC(=O)N1CCN(C(=O)[C@H](CCC(=O)O)NC(=O)c2cc(OCC(=O)N3CCC[C@H]3C(=O)NCC3CC3)n(-c3ccccc3)n2)[C@H](C)C1` [Example 152, (R)-4-[(S)-4-Carboxy-2-({5-[2-((S)-2-(cyclopropylmethyl-carbamoyl)-pyrrolidin-1-yl)-2-oxo-ethoxy]-1-phenyl-1H-pyrazole-3-carbonyl}-amino)-butyryl]-3-methyl-piperazine-1-carboxylic acid ethyl ester] reads 37 nM; that for `CCOC(=O)N1CCN(C(=O)[C@H](CCC(=O)O)NC(=O)c2cc(OCC(=O)N3CCCC3c3cccs3)n(-c3ccccc3)n2)CC1` (stereo partly drawn) [Example 167, 4-[(S)-4-Carboxy-2-({5-[2-oxo-2-(2-thiophen-2-yl-pyrrolidin-1-yl)-ethoxy]-1-phenyl-1H-pyrazole-3-carbonyl}-amino)-butyryl]-piperazine-1-carboxylic acid ethyl ester], 146 nM; that for `CCOC(=O)N1CCN(C(=O)[C@H](CCC(=O)O)NC(=O)c2cc(OCC(=O)N3CCC[C@H]3c3ccccc3)n(-c3ccccc3)n2)CC1` [Example 170, 4-[(S)-4-Carboxy-2-({5-[2-oxo-2-((S)-2-phenyl-pyrrolidin-1-yl)-ethoxy]-1-phenyl-1H-pyrazole-3-carbonyl}-amino)-butyryl]-piperazine-1-carboxylic acid ethyl ester], 86 nM.
On the same count and under the same terms, with `CCCOC(=O)N1CCN(C(=O)C(NC(=O)c2cc(OCC(=O)N3CCC[C@H]3C(=O)NC3CCC3)n(-c3ccccc3)n2)C(C)F)CC1` (stereo partly drawn) [Example 175, 4-[2-({5-[2-((S)-2-Cyclobutylcarbamoyl-pyrrolidin-1-yl)-2-oxo-ethoxy]-1-phenyl-1H-pyrazole-3-carbonyl}-amino)-3-fluoro-butyryl]-piperazine-1-carboxylic acid propyl ester] the figure was 179 nM; with `CCCCOC(=O)N1CCN(C(=O)C(NC(=O)c2cc(OCC(=O)N3CCC[C@H]3C(=O)NC3CCC3)n(-c3ccccc3)n2)C(C)F)CC1` (stereo partly drawn) [Example 176, 4-[2-({5-[2-((S)-2-Cyclobutylcarbamoyl-pyrrolidin-1-yl)-2-oxo-ethoxy]-1-phenyl-1H-pyrazole-3-carbonyl}-amino)-3-fluoro-butyryl]-piperazine-1-carboxylic acid butyl ester], 45 nM.
Same read-out and setting: the result for `CCCCOC(=O)N1CCN(C(=O)[C@H](C)NC(=O)c2cc(OCC(=O)N3CCC[C@H]3C(=O)NC3CCC3)n(-c3ccccc3)n2)CC1` [Example 186, 4-[(S)-2-({5-[2-((S)-2-Cyclobutylcarbamoyl-pyrrolidin-1-yl)-2-oxo-ethoxy]-1-phenyl-1H-pyrazole-3-carbonyl}-amino)-propionyl]-piperazine-1-carboxylic acid butyl ester] reads 16 nM.
Consider `CCOC(=O)N1CCN(C(=O)[C@H](CCCCOCc2ccccc2)NC(=O)c2cc(OCC(=O)N3CCC[C@H]3C(=O)NC3CCC3)n(-c3ccccc3)n2)CC1` [Example 195, 4-[(S)-6-Benzyloxy-2-({5-[2-((S)-2-cyclobutylcarbamoyl-pyrrolidin-1-yl)-2-oxo-ethoxy]-1-phenyl-1H-pyrazole-3-carbonyl}-amino)-hexanoyl]-piperazine-1-carboxylic acid ethyl ester], for which the half-maximal inhibitory concentration (IC50) on human P2Y12 receptor was 88 nM.
Turning to `CCCCOC(=O)N1CCN(C(=O)[C@H](CCCCOCc2ccccc2)NC(=O)c2cc(OCC(=O)N3CCC[C@H]3C(=O)NC3CCC3)n(-c3ccccc3)n2)CC1` [Example 196, 4-[(S)-6-Benzyloxy-2-({5-[2-((S)-2-cyclobutylcarbamoyl-pyrrolidin-1-yl)-2-oxo-ethoxy]-1-phenyl-1H-pyrazole-3-carbonyl}-amino)-hexanoyl]-piperazine-1-carboxylic acid butyl ester], the IC50 at human P2Y12 receptor was determined as 23 nM.
`O=C(N[C@@H](CCCCOCc1ccccc1)C(=O)N1CCN(C(=O)OC2CCC2)CC1)c1cc(OCC(=O)N2CCC[C@H]2C(=O)NC2CCC2)n(-c2ccccc2)n1` [Example 197, 4-[(S)-6-Benzyloxy-2-({5-[2-((S)-2-cyclobutylcarbamoyl-pyrrolidin-1-yl)-2-oxo-ethoxy]-1-phenyl-1H-pyrazole-3-carbonyl}-amino)-hexanoyl]-piperazine-1-carboxylic acid cyclobutyl ester]: on human P2Y12 receptor, the IC50 came to 99 nM.
`CCCCOC(=O)N1CCN(C(=O)[C@H](CCCOC(=O)C(C)C)NC(=O)c2cc(OCC(=O)N3CCC[C@H]3C(=O)NC3CCC3)n(-c3ccccc3)n2)CC1` [Example 212, 4-[(S)-2-({5-[2-((S)-2-Cyclobutylcarbamoyl-pyrrolidin-1-yl)-2-oxo-ethoxy]-1-phenyl-1H-pyrazole-3-carbonyl}-amino)-5-isobutyryloxy-pentanoyl]-piperazine-1-carboxylic acid butyl ester]: at human P2Y12 receptor, the IC50 came out at 17 nM.
The same measure, in the same setting: the result for `CCCCOC(=O)N1CCN(C(=O)[C@H](CC2CCCCC2)NC(=O)c2cc(OCC(=O)N3CCC[C@H]3C(=O)NC3CCC3)n(-c3ccccc3)n2)CC1` [Example 225, 4-[(S)-2-({5-[2-((S)-2-Cyclobutylcarbamoyl-pyrrolidin-1-yl)-2-oxo-ethoxy]-1-phenyl-1H-pyrazole-3-carbonyl}-amino)-3-cyclohexyl-propionyl]-piperazine-1-carboxylic acid butyl ester] reads 136 nM; that for `CCCCOC(=O)N1CCN(C(=O)[C@H](CC(C)C)NC(=O)c2cc(OCC(=O)N3CCC[C@H]3C(=O)NC3CCC3)n(-c3ccccc3)n2)CC1` [Example 226, 4-[(S)-2-({5-[2-((S)-2-Cyclobutylcarbamoyl-pyrrolidin-1-yl)-2-oxo-ethoxy]-1-phenyl-1H-pyrazole-3-carbonyl}-amino)-4-methyl-pentanoyl]-piperazine-1-carboxylic acid butyl ester], 59 nM; that for `CCCCOC(=O)N1CCN(C(=O)[C@@H](NC(=O)c2cc(OCC(=O)N3CCC[C@H]3C(=O)NC3CCC3)n(-c3ccccc3)n2)[C@H](C)CC)CC1` [Example 229, 4-[(2S,3R)-2-({5-[2-((S)-2-Cyclobutylcarbamoyl-pyrrolidin-1-yl)-2-oxo-ethoxy]-1-phenyl-1H-pyrazole-3-carbonyl}-amino)-3-methyl-pentanoyl]-piperazine-1-carboxylic acid butyl ester], 22 nM.
Still for that read-out and setting: with `CCCCOC(=O)N1CCN(C(=O)[C@H](CC2CC2)NC(=O)c2cc(OCC(=O)N3CCC[C@H]3C(=O)NC3CCC3)n(-c3ccccc3)n2)CC1` [Example 234, 4-[(S)-2-({5-[2-((S)-2-Cyclobutylcarbamoyl-pyrrolidin-1-yl)-2-oxo-ethoxy]-1-phenyl-1H-pyrazole-3-carbonyl}-amino)-3-cyclopropyl-propionyl]-piperazine-1-carboxylic acid butyl ester] the figure was 85 nM.
As for `CCOC(=O)N1CCN(C(=O)[C@H](CCCCOC(C)=O)NC(=O)c2cc(OCC(=O)N3CCC[C@H]3C(=O)NC3CCC3)n(-c3ccccc3)n2)CC1` [Example 237, 4-[(S)-6-Acetoxy-2-({5-[2-((S)-2-cyclobutylcarbamoyl-pyrrolidin-1-yl)-2-oxo-ethoxy]-1-phenyl-1H-pyrazole-3-carbonyl}-amino)-hexanoyl]-piperazine-1-carboxylic acid ethyl ester], on human P2Y12 receptor, the IC50 is 30 nM.
Turning to `CCCCOC(=O)N1CCN(C(=O)[C@H](CC(F)(F)F)NC(=O)c2cc(OCC(=O)N3CCC[C@H]3C(=O)NC3CCC3)n(-c3ccccc3)n2)CC1` [Example 274, 4-[(S)-2-({5-[2-((S)-2-Cyclobutylcarbamoyl-pyrrolidin-1-yl)-2-oxo-ethoxy]-1-phenyl-1H-pyrazole-3-carbonyl}-amino)-4,4,4-trifluoro-butyryl]-piperazine-1-carboxylic acid butyl ester], the 50% inhibitory concentration (IC50) on human P2Y12 receptor is 36 nM.
